Key:
[1] = biological target: T1, dopamine autoreceptor (D2, 3H-quinpirole) (Rattus norvegicus, UniProt P61169); assay: Dopamine autoreceptor affinity, 3H-quinpirole binding in homogenized rat striatal brain tissue; details: rat striatal brain tissue homogenate, read-out: IC50 (nM), D2, (Quin.)
T1 construct: homogenized rat striatal brain tissue; from tissue; host or cells: rat striatal brain tissue
Method: Affinity for the dopamine autoreceptor was established by a modification of the standard experimental test procedure of Seemen and Schaus, European Journal of Pharmacology 203: 105-109, 1991, wherein homogenized rat striatal brain tissue is incubated with ^3 H-quinpirole (Quin.) and various concentrations of test compound, filtered and washed and counted in a Betaplate scintillation counter.

dopamine D-2 receptor = biological target: T2, dopamine D-2 receptor (Rattus norvegicus, UniProt P61169); assay: Dopamine D-2 receptor affinity, 3H-spiroperidol binding in homogenized limbic brain tissue
T2 construct: homogenized limbic brain tissue; from tissue
Method: High affinity for the dopamine D-2 receptor was established by the standard experimental test procedure of Fields, et al., Brain Res., 136, 578 (1977) and Yamamura et al., eds., Neurotransmitter Receptor Binding, Raven Press, N.Y. (1978) wherein homogenized limbic brain tissue is incubated with ^3 H-spiroperidol (Spiper.) and various concentrations of test compound, filtered and washed and shaken with Hydrofluor scintillation cocktail (National Diagnostics) and counted in a Packard 460 CD scintillation counter.

T2 sequence (P61169 whole entry): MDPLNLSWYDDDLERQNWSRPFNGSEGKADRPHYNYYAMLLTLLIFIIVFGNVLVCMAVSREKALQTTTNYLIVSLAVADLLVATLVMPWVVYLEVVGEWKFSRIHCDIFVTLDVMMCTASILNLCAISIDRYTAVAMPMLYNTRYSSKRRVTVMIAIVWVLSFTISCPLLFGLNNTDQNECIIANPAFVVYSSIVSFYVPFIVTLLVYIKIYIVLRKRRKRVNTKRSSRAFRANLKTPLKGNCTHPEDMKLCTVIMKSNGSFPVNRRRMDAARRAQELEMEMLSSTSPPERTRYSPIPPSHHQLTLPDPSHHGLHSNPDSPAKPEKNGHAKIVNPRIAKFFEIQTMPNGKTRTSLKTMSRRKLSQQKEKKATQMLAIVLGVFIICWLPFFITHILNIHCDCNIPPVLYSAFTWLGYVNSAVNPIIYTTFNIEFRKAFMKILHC
T1 sequence (P61169 whole entry): as above

## Oc1ccc2c(c1)OC(CNCc1ccccn1)CC2 (stereo not drawn) [Example 1]
[1]
  IC50: 2.21 nM
Dopamine D-2 receptor; 3H-spiroperidol, limbic brain tissue homogenate, read-out: IC50 (nM), (Spiper.)
  IC50: 1230 nM
Dopamine D-2 receptor; ratio of IC50 (Spiper.) to IC50 (Quin.), LowAg/HighAg
  ratio: 557
